Experimental data from ChEMBL document CHEMBL3885861, “Open TG-GATES”.

Species: Rattus norvegicus
Assay: Open TG-GATES - Regimen: Daily Repeat
Format: toxicity, organism-based, Sprague-Dawley
Parameters: regimen Daily Repeat, gender Male, age 6 weeks
Details: in vivo, po, 1000 mg/kg, route gavage, dose level High; for APTT / Bas / Eos / Fbg / Hb / Ht / Lym / MCH / MCHC / MCV / Mono / Neu / PT / Plat / RBC / Ret / WBC: tissue Blood; for KIDNEY_L / KIDNEY_R / KIDNEY_TOTAL: tissue Kidney; for LIVER: tissue Liver; for A/G / ALP / ALT / AST / BUN / CRE / Ca / Cl / DBIL / GLC / IP / K / LDH / Na / PL / RALB / TBIL / TC / TG / TP / gamma-GTP: tissue Plasma

`CCOC(=O)CCC(=O)O[C@H]1[C@H](O[C@@H]2[C@@H](C)[C@H](O[C@H]3C[C@@](C)(OC)[C@@H](O)[C@H](C)O3)[C@@H](C)C(=O)O[C@H](CC)[C@@](C)(O)[C@H](O)[C@@H](C)C(=O)[C@H](C)C[C@@]2(C)O)O[C@H](C)C[C@@H]1N(C)C` [ERYTHROMYCIN ETHYLSUCCINATE] gave a TERMINAL_BW (72 h, time 3 day) of 226.1 g, an APTT (72 h, time 3 day) of 20.6 s and a Bas (72 h, time 3 day) of 0%. For the same compound, the Eos (72 h, time 3 day) was 1%, the Fbg (72 h, time 3 day) was 325 mg/dL and the Hb (72 h, time 3 day) was 14.4 g/dL. For the same compound, the Ht (72 h, time 3 day) was 41.8%, the Lym (72 h, time 3 day) was 86.4% and the MCH (72 h, time 3 day) was 21.2 pg. The MCHC (72 h, time 3 day) was 34.4%, the MCV (72 h, time 3 day) was 61.6 fL and the Mono (72 h, time 3 day) was 3%. For the same compound, the Neu (72 h, time 3 day) was 8.6%, the PT (72 h, time 3 day) was 15.7 s and the Plat (72 h, time 3 day) was 125 x10_4/uL. For the same compound, the RBC (72 h, time 3 day) was 679.6 x10_4/ul, the Ret (72 h, time 3 day) was 3.4% and the WBC (72 h, time 3 day) was 68.6 x10_2/uL. It also gave a KIDNEY_L (72 h, time 3 day) of 1 g, a KIDNEY_R (72 h, time 3 day) of 1 g and a KIDNEY_TOTAL (72 h, time 3 day) of 2 g. It also gave an LIVER (72 h, time 3 day) of 9.5 g, an A/G (72 h, time 3 day) of 1.2 and an ALP (72 h, time 3 day) of 1860.4 IU/L. It also gave an ALT (72 h, time 3 day) of 38.2 IU/L, an AST (72 h, time 3 day) of 67.4 IU/L and a BUN (72 h, time 3 day) of 17 mg/dL. For the same compound, the CRE (72 h, time 3 day) was 0.2 mg/dL, the Ca (72 h, time 3 day) was 10.5 mg/dL and the Cl (72 h, time 3 day) was 108.4 meq/L. The DBIL (72 h, time 3 day) was 0.002 mg/dL, the GLC (72 h, time 3 day) was 178 mg/dL and the IP (72 h, time 3 day) was 7.2 mg/dL. It also gave a K (72 h, time 3 day) of 4.2 meq/L, an LDH (72 h, time 3 day) of 198.2 IU/L and a Na (72 h, time 3 day) of 141.8 meq/L. For the same compound, the PL (72 h, time 3 day) was 155.6 mg/dL, the RALB (72 h, time 3 day) was 3.1 g/dL and the TBIL (72 h, time 3 day) was 0.032 mg/dL. It also gave a TC (72 h, time 3 day) of 95.2 mg/dL, a TG (72 h, time 3 day) of 58.4 mg/dL and a TP (72 h, time 3 day) of 5.7 g/dL. It also gave a gamma-GTP (72 h, time 3 day) of 1.4 IU/L, a TERMINAL_BW ([…], time 7 day) of 250.4 g and a TERMINAL_BW ([…], time 14 day) of 298.7 g. The TERMINAL_BW ([…], time 28 day) was 358.6 g, the APTT ([…], time 7 day) was 21.4 s and the Bas ([…], time 7 day) was 0%. It also gave an Eos ([…], time 7 day) of 1%, a Fbg ([…], time 7 day) of 338.6 mg/dL and a Hb ([…], time 7 day) of 13.6 g/dL. It also gave a Ht ([…], time 7 day) of 40.3%, a Lym ([…], time 7 day) of 81.6% and an MCH ([…], time 7 day) of 20.5 pg. The MCHC ([…], time 7 day) was 33.9%, the MCV ([…], time 7 day) was 60.4 fL and the Mono ([…], time 7 day) was 2.2%. It also gave a Neu ([…], time 7 day) of 14%, a PT ([…], time 7 day) of 16.6 s and a Plat ([…], time 7 day) of 112.5 x10_4/uL. The RBC ([…], time 7 day) was 666.4 x10_4/ul, the Ret ([…], time 7 day) was 3.8% and the WBC ([…], time 7 day) was 93.3 x10_2/uL. It also gave an APTT ([…], time 14 day) of 20.5 s, a Bas ([…], time 14 day) of 0% and an Eos ([…], time 14 day) of 0.8%. The Fbg ([…], time 14 day) was 327.6 mg/dL, the Hb ([…], time 14 day) was 14.2 g/dL and the Ht ([…], time 14 day) was 40.6%. For the same compound, the Lym ([…], time 14 day) was 83%, the MCH ([…], time 14 day) was 20.5 pg and the MCHC ([…], time 14 day) was 34.8%. For the same compound, the MCV ([…], time 14 day) was 59 fL, the Mono ([…], time 14 day) was 3.2% and the Neu ([…], time 14 day) was 11.4%. For the same compound, the PT ([…], time 14 day) was 16.2 s, the Plat ([…], time 14 day) was 107.4 x10_4/uL and the RBC ([…], time 14 day) was 690 x10_4/ul. For the same compound, the Ret ([…], time 14 day) was 4.6%, the WBC ([…], time 14 day) was 91.9 x10_2/uL and the APTT ([…], time 28 day) was 24.9 s. It also gave a Bas ([…], time 28 day) of 0%, an Eos ([…], time 28 day) of 1% and a Fbg ([…], time 28 day) of 340.4 mg/dL. The Hb ([…], time 28 day) was 15.2 g/dL, the Ht ([…], time 28 day) was 43.7% and the Lym ([…], time 28 day) was 82.4%. The MCH ([…], time 28 day) was 18.9 pg, the MCHC ([…], time 28 day) was 34.7% and the MCV ([…], time 28 day) was 54.3 fL. It also gave a Mono ([…], time 28 day) of 2.2%, a Neu ([…], time 28 day) of 12.6% and a PT ([…], time 28 day) of 16.3 s. The Plat ([…], time 28 day) was 102.9 x10_4/uL, the RBC ([…], time 28 day) was 804.4 x10_4/ul and the Ret ([…], time 28 day) was 2.3%. It also gave a WBC ([…], time 28 day) of 79.8 x10_2/uL, a KIDNEY_L ([…], time 7 day) of 1.1 g and a KIDNEY_R ([…], time 7 day) of 1.1 g. It also gave a KIDNEY_TOTAL ([…], time 7 day) of 2.2 g, a KIDNEY_L ([…], time 14 day) of 1.2 g and a KIDNEY_R ([…], time 14 day) of 1.2 g. For the same compound, the KIDNEY_TOTAL ([…], time 14 day) was 2.4 g, the KIDNEY_L ([…], time 28 day) was 1.4 g and the KIDNEY_R ([…], time 28 day) was 1.4 g. The KIDNEY_TOTAL ([…], time 28 day) was 2.8 g, the LIVER ([…], time 7 day) was 10.1 g and the LIVER ([…], time 14 day) was 12.3 g. For the same compound, the LIVER ([…], time 28 day) was 13.8 g, the A/G ([…], time 7 day) was 1.1 and the ALP ([…], time 7 day) was 1998.2 IU/L. The ALT ([…], time 7 day) was 35.2 IU/L, the AST ([…], time 7 day) was 71.8 IU/L and the BUN ([…], time 7 day) was 18.2 mg/dL. It also gave a CRE ([…], time 7 day) of 0.2 mg/dL, a Ca ([…], time 7 day) of 10.5 mg/dL and a Cl ([…], time 7 day) of 108.2 meq/L. For the same compound, the DBIL ([…], time 7 day) was 0 mg/dL, the GLC ([…], time 7 day) was 188.6 mg/dL and the IP ([…], time 7 day) was 7.4 mg/dL. For the same compound, the K ([…], time 7 day) was 4.1 meq/L, the LDH ([…], time 7 day) was 156.6 IU/L and the Na ([…], time 7 day) was 141.8 meq/L. For the same compound, the PL ([…], time 7 day) was 155 mg/dL, the RALB ([…], time 7 day) was 2.8 g/dL and the TBIL ([…], time 7 day) was 0.01 mg/dL. The TC ([…], time 7 day) was 84.8 mg/dL, the TG ([…], time 7 day) was 97.6 mg/dL and the TP ([…], time 7 day) was 5.4 g/dL. For the same compound, the gamma-GTP ([…], time 7 day) was 1.6 IU/L, the A/G ([…], time 14 day) was 1.1 and the ALP ([…], time 14 day) was 1716 IU/L. It also gave an ALT ([…], time 14 day) of 36 IU/L, an AST ([…], time 14 day) of 68.8 IU/L and a BUN ([…], time 14 day) of 19.6 mg/dL. The CRE ([…], time 14 day) was 0.2 mg/dL, the Ca ([…], time 14 day) was 10.7 mg/dL and the Cl ([…], time 14 day) was 108.6 meq/L. For the same compound, the DBIL ([…], time 14 day) was 0 mg/dL, the GLC ([…], time 14 day) was 187 mg/dL and the IP ([…], time 14 day) was 6.6 mg/dL. For the same compound, the K ([…], time 14 day) was 4.4 meq/L, the LDH ([…], time 14 day) was 161 IU/L and the Na ([…], time 14 day) was 142 meq/L. It also gave a PL ([…], time 14 day) of 163.2 mg/dL, an RALB ([…], time 14 day) of 2.9 g/dL and a TBIL ([…], time 14 day) of 0.006 mg/dL. For the same compound, the TC ([…], time 14 day) was 88.8 mg/dL, the TG ([…], time 14 day) was 140.8 mg/dL and the TP ([…], time 14 day) was 5.6 g/dL. The gamma-GTP ([…], time 14 day) was 1.8 IU/L, the A/G ([…], time 28 day) was 1.1 and the ALP ([…], time 28 day) was 1257.4 IU/L. For the same compound, the ALT ([…], time 28 day) was 37 IU/L, the AST ([…], time 28 day) was 67.6 IU/L and the BUN ([…], time 28 day) was 19.2 mg/dL. For the same compound, the CRE ([…], time 28 day) was 0.2 mg/dL, the Ca ([…], time 28 day) was 10.4 mg/dL and the Cl ([…], time 28 day) was 108.8 meq/L. The DBIL ([…], time 28 day) was 0.002 mg/dL, the GLC ([…], time 28 day) was 173 mg/dL and the IP ([…], time 28 day) was 6.9 mg/dL. The K ([…], time 28 day) was 4.1 meq/L, the LDH ([…], time 28 day) was 132.8 IU/L and the Na ([…], time 28 day) was 141.8 meq/L. For the same compound, the PL ([…], time 28 day) was 138 mg/dL, the RALB ([…], time 28 day) was 3 g/dL and the TBIL ([…], time 28 day) was 0.012 mg/dL. For the same compound, the TC ([…], time 28 day) was 75.2 mg/dL, the TG ([…], time 28 day) was 99.6 mg/dL and the TP ([…], time 28 day) was 5.7 g/dL. It also gave a gamma-GTP ([…], time 28 day) of 1.6 IU/L.
